± gives the expanded uncertainty stated by the source.
Legend:
[1] = for mass density / viscosity: 101.33 kPa, Liquid; for mass density: Vibrating tube method; for viscosity: Falling or rolling sphere viscometry
[2] = refractive index (Na D-line) (dimensionless); conditions: 101.33 kPa, Liquid, Standard Abbe refractometry

Work on `CCCC[n+]1cccc(C#N)c1.O=S(=O)([N-]S(=O)(=O)C(F)(F)F)C(F)(F)F` [1-butyl-3-cyanopyridinium bis(trifluoromethylsulfonyl)imide] yielded a mass density ([1]; 298.15 K) of 1479.79 ± 2.1 kg/m3.

`CCCC[n+]1ccc(C#N)cc1.O=S(=O)([N-]S(=O)(=O)C(F)(F)F)C(F)(F)F` [1-butyl-4-cyanopyridinium bis(trifluoromethylsulfonyl)imide] showed a mass density ([1]; 278.15 K) of 1492.99 ± 2.1 kg/m3, a mass density ([1]; 288.15 K) of 1483.58 ± 2.1 kg/m3 and a mass density ([1]; 298.15 K) of 1474.23 ± 2.1 kg/m3. For the same molecule, the viscosity ([1]; 308.15 K) was 250.45 ± 14 mPa·s, the mass density ([1]; 308.15 K) was 1465.05 ± 2 kg/m3 and the viscosity ([1]; 318.15 K) was 138.28 ± 5.4 mPa·s. The mass density ([1]; 318.15 K) was 1455.88 ± 2 kg/m3, the viscosity ([1]; 328.15 K) was 83.59 ± 2.3 mPa·s and the mass density ([1]; 328.15 K) was 1446.76 ± 2 kg/m3. It also gave a viscosity ([1]; 338.15 K) of 54.47 ± 1.2 mPa·s, a mass density ([1]; 338.15 K) of 1437.73 ± 2 kg/m3 and a viscosity ([1]; 348.15 K) of 37.59 ± 0.89 mPa·s. It also gave a mass density ([1]; 348.15 K) of 1428.78 ± 2 kg/m3, a viscosity ([1]; 358.15 K) of 27.24 ± 0.65 mPa·s and a mass density ([1]; 358.15 K) of 1419.9 ± 1.9 kg/m3. For the same molecule, the Glass transition temperature ([1]; Glass, DTA) was -54 ± 3.8 °C.

Work on `CCCCCC[n+]1ccc(C#N)cc1.O=S(=O)([N-]S(=O)(=O)C(F)(F)F)C(F)(F)F` [1-hexyl-4-cyanopyridinium bis(trifluoromethylsulfonyl)imide] yielded a mass density ([1]; 298.15 K) of 1407 ± 1.9 kg/m3.

Work on `CC(C)=O` [acetone] yielded a mass density ([1]; 298.15 K) of 785.23 ± 1 kg/m3 and a refractive index ([2]; 298.15 K) of 1.356 ± 0.0007.

Work on `c1ccc2sccc2c1` [benzo[b]thiophene] yielded a mass density ([1]; 308.15 K) of 1150.55 ± 1.1 kg/m3, a mass density ([1]; 310.15 K) of 1149.31 ± 1.1 kg/m3 and a mass density ([1]; 313.15 K) of 1146.05 ± 1.1 kg/m3. It also gave a mass density ([1]; 318.15 K) of 1141.56 ± 1.1 kg/m3, a mass density ([1]; 323.15 K) of 1137.07 ± 1.1 kg/m3 and a mass density ([1]; 328.15 K) of 1132.58 ± 1.1 kg/m3. The mass density ([1]; 333.15 K) was 1128.08 ± 1.1 kg/m3, the mass density ([1]; 338.15 K) was 1123.59 ± 1 kg/m3 and the mass density ([1]; 343.15 K) was 1119.1 ± 1 kg/m3. The mass density ([1]; 348.15 K) was 1114.61 ± 1 kg/m3, the mass density ([1]; 353.15 K) was 1110.11 ± 1 kg/m3 and the mass density ([1]; 358.15 K) was 1105.61 ± 1 kg/m3. The mass density ([1]; 363.15 K) was 1101.11 ± 1 kg/m3 and the refractive index ([2]; 310.15 K) was 1.638 ± 0.0007.

Work on `CCCCCCC` [heptane] yielded a mass density ([1]; 298.15 K) of 679.48 ± 1 kg/m3 and a refractive index ([2]; 298.15 K) of 1.38519 ± 0.00068.

In the case of `CCCO` [propan-1-ol], the mass density ([1]; 298.15 K) is reported as 799.52 ± 1 kg/m3 and the refractive index ([2]; 298.15 K) is reported as 1.38375 ± 0.00068.

`c1ccsc1` [thiophene] gave a mass density ([1]; 298.15 K) of 1058.64 ± 1 kg/m3 and a refractive index ([2]; 298.15 K) of 1.52527 ± 0.0007.
